Structures are written as SMILES.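 All cell lines were grown in 96-well plates and treated with compound for 48 hours. GI50: concentration for 50% inhibition of growth.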 Active and inactive are the calls of the source. Cut-off read from the data, not from the text of the source: active = GI50 up to about 1.1 µM and inactive = higher. Where a SMILES comes first, the peptide text is derived from it. The star is where a group is joined. Boc = CC(C)(C)OC(=O)*; OBn = c1ccc(CO*)cc1 A value given as a limit tells only on which side of the number the result lay.

Among the test systems are A549; CCRF-CEM; EKVX; HL-60; HOP-62; HOP-92; MCF7; MDA-MB-231; MDA-N; NCI-H23; NCI-H522; OVCAR-8; SF-295; SK-OV-3; SR; SW-620; ACHN; Malme-3M; CAKI-1.
What all share (experiment): inhibition of tumour cell growth, NCI panel, 48 h

For the compound `C1CSCC2(COC2)CSCCSCC2(COC2)CS1`, the GI50 in the test on A549, in the test with CCRF-CEM, with EKVX, with HL-60, in the test with HOP-62 and with HOP-92 was > 100 µM (inactive) throughout. Also, the GI50 in the test with MCF7, in the test on MDA-MB-231, in the test with MDA-N, in the test on NCI-H23, in the test on NCI-H522 and with OVCAR-8 was > 100 µM (inactive) each time. Moreover, the GI50 in the test on SF-295, with SK-OV-3, in the test on SR and in the test on SW-620 was > 100 µM (inactive) each time.
In the case of `Cc1ccc(S(=O)(=O)NC(=O)NC(CC(N)=O)C(=O)O)cc1` (stereo not drawn), the GI50 with A549, with ACHN, with CCRF-CEM, with HL-60, in the test on HOP-62 and with HOP-92 was > 100 µM (inactive) in each case. Besides, the GI50 in the test on MCF7, with MDA-MB-231, in the test with MDA-N, in the test on Malme-3M, in the test with NCI-H23 and with NCI-H522 was > 100 µM (inactive) each time. The GI50 with OVCAR-8, in the test on SF-295, in the test on SK-OV-3, in the test on SR and in the test with SW-620 was > 100 µM (inactive) throughout.
`O=c1oc2ccc([N+](=O)[O-])cc2cc1Br`: the GI50 in the test with A549 was > 100 µM (inactive); with ACHN, 78.5 µM (inactive); in the test with CAKI-1, > 100 µM (inactive); in the test on CCRF-CEM, 57.5 µM (inactive); in the test on EKVX, > 100 µM (inactive); with HL-60, 39 µM (inactive). Moreover, the GI50 in the test with HOP-62 is 71.6 µM (inactive); in the test with HOP-92, 86.3 µM (inactive); with MCF7 it was > 100 µM (inactive); in the test on MDA-MB-231, > 100 µM (inactive); with MDA-N, > 100 µM (inactive); in the test with Malme-3M, > 100 µM (inactive). The GI50 is > 100 µM (inactive) in the test with NCI-H23; > 100 µM (inactive) in the test with NCI-H522; > 100 µM (inactive) in the test on OVCAR-8; > 100 µM (inactive) in the test with SF-295; 47.3 µM (inactive) with SR; > 100 µM (inactive) in the test with SW-620.
For `Cc1c(C)c(S(=O)(=O)N(CCCCCON)OCCCN)c(C)c2c1OC(C)(C)CC2`, the GI50 in the test with A549 is 13.4 µM (inactive); in the test with ACHN, 16.4 µM (inactive); with CAKI-1 it was 6.41 µM (inactive); in the test with EKVX, 12.3 µM (inactive); with HL-60, 5.74 µM (inactive); in the test with HOP-62 it was 16 µM (inactive). Further, the GI50 is 10.3 µM (inactive) with HOP-92; 8.18 µM (inactive) in the test on MCF7; 15.7 µM (inactive) in the test on MDA-MB-231; 14.3 µM (inactive) with MDA-N; 14.3 µM (inactive) in the test on Malme-3M; 15.6 µM (inactive) with NCI-H23. The GI50 in the test with NCI-H522 is 17.7 µM (inactive); in the test on OVCAR-8 it was 11 µM (inactive); with SF-295 it was 15.2 µM (inactive); in the test with SK-OV-3, 14.5 µM (inactive); with SR, 2.71 µM (inactive); with SW-620 it was 15 µM (inactive).
Take `CC(NC(=O)C(Cc1ccccc1)NC(=O)C(Cc1ccccc1)NC(=O)OC(C)(C)C)C(=O)OCc1ccccc1` (stereo not drawn) (Boc-Phe-Phe-Ala-OBn; configuration not given here): the GI50 was > 100 µM (inactive) in the test with A549; > 10 µM (inactive) in the test on CAKI-1; 58.3 µM (inactive) with CCRF-CEM; > 100 µM (inactive) in the test with EKVX; 31.8 µM (inactive) in the test on HL-60; > 100 µM (inactive) with HOP-62. In addition, the GI50 in the test with HOP-92 was 20.4 µM (inactive); in the test on MCF7, 53.5 µM (inactive); in the test with MDA-MB-231, > 100 µM (inactive); in the test on MDA-N it was > 100 µM (inactive); with Malme-3M, 93.1 µM (inactive); in the test with NCI-H23, > 100 µM (inactive). Further, the GI50 was 68.1 µM (inactive) in the test with NCI-H522; > 100 µM (inactive) with OVCAR-8; 43.5 µM (inactive) in the test with SF-295; > 100 µM (inactive) in the test on SK-OV-3; 28.6 µM (inactive) in the test on SR; > 100 µM (inactive) with SW-620.
Regarding `CC1(C)CC2=C(Sc3ccccc3N2)C(=O)C1C(=O)C(=O)Nc1cc(Cl)ccc1Cl` (stereo not drawn), the GI50 in the test on A549, in the test on ACHN, in the test on CAKI-1, in the test with CCRF-CEM, in the test with EKVX and in the test with HL-60 was > 100 µM (inactive) each time. The GI50 with HOP-92, in the test on MCF7, in the test on MDA-MB-231, in the test on MDA-N, with Malme-3M and in the test on NCI-H23 was > 100 µM (inactive) throughout. Further, the GI50 in the test on NCI-H522, with OVCAR-8, in the test on SF-295, with SK-OV-3, with SR and with SW-620 was > 100 µM (inactive) each time.
For the compound `O=C(C(Cl)=C(N1CCOCC1)N1CCOCC1)C(Cl)Cl`, the GI50 with A549 is > 100 µM (inactive); in the test on ACHN it was > 100 µM (inactive); in the test on CAKI-1, > 100 µM (inactive); with CCRF-CEM, 56.9 µM (inactive); in the test on EKVX, > 100 µM (inactive); in the test with HL-60, > 100 µM (inactive). Moreover, the GI50 in the test on HOP-62 was > 100 µM (inactive); with HOP-92, > 100 µM (inactive); with MCF7 it was 94.2 µM (inactive); in the test with MDA-MB-231 it was > 100 µM (inactive); in the test on MDA-N it was > 100 µM (inactive); in the test with Malme-3M it was > 100 µM (inactive). Besides, the GI50 with NCI-H23 was > 100 µM (inactive); in the test with NCI-H522, > 100 µM (inactive); in the test with OVCAR-8 it was > 100 µM (inactive); in the test on SK-OV-3, > 100 µM (inactive); in the test on SR, 34.5 µM (inactive); in the test with SW-620 it was > 100 µM (inactive).
On to `COn1cc(C=O)c2ccccc21`, for which the GI50 is > 67 µM (inactive) in the test on A549; 32.7 µM (inactive) in the test with ACHN; 28.7 µM (inactive) in the test on CAKI-1; 23.7 µM (inactive) in the test on EKVX; 0.551 µM (active) in the test on HL-60; 81.3 µM (inactive) in the test on HOP-62. The GI50 with HOP-92 is > 68.9 µM (inactive); in the test on MCF7 it was 45.2 µM (inactive); with MDA-MB-231, > 100 µM (inactive); in the test on MDA-N it was 23.6 µM (inactive); in the test with Malme-3M, > 93.8 µM (inactive); in the test with NCI-H23, > 100 µM (inactive). The GI50 in the test with NCI-H522 is 38.6 µM (inactive); in the test on OVCAR-8 it was > 93.8 µM (inactive); in the test with SF-295, 44.1 µM (inactive); in the test on SK-OV-3 it was 67 µM (inactive); in the test with SR it was 26.4 µM (inactive); with SW-620, 26 µM (inactive).
As to `COc1ccc(CNc2nc3ccccc3nc2C(=O)O)cc1`, the GI50 is > 100 µM (inactive) in the test with A549; > 100 µM (inactive) in the test with CAKI-1; 83.4 µM (inactive) in the test on CCRF-CEM; 78.2 µM (inactive) in the test on EKVX; 95.7 µM (inactive) with HL-60; > 100 µM (inactive) in the test with HOP-62. The GI50 with HOP-92 was 70.5 µM (inactive); with MCF7, > 100 µM (inactive); with MDA-MB-231 it was > 100 µM (inactive); with MDA-N, > 100 µM (inactive); in the test on NCI-H23, > 100 µM (inactive); with NCI-H522, 72.9 µM (inactive). Further, the GI50 with OVCAR-8 is > 100 µM (inactive); in the test with SF-295, 51.4 µM (inactive); in the test on SR it was 41.1 µM (inactive); with SW-620, > 100 µM (inactive).
On to `CC(=O)Oc1ccc2c3c1O[C@H]1[C@H](O)CC[C@@]4(O)[C@@H](C2)N(C)CC[C@]314`, for which the GI50 with A549, with ACHN, in the test with CAKI-1, in the test with EKVX, in the test on HL-60 and in the test on HOP-62 was > 100 µM (inactive) throughout. In addition, the GI50 in the test with HOP-92, in the test with MCF7, in the test with MDA-MB-231, with MDA-N, with Malme-3M and in the test with NCI-H23 was > 100 µM (inactive) each time. Further, the GI50 with NCI-H522, in the test on OVCAR-8, with SF-295, in the test on SK-OV-3, with SR and in the test with SW-620 was > 100 µM (inactive) each time.
For `O=C(O)C1C2CC3C(OC(=O)C31)C2Br` (stereo not drawn), the GI50 with A549, in the test on ACHN, with CAKI-1, in the test with CCRF-CEM, in the test on EKVX and in the test on HOP-62 was > 100 µM (inactive) throughout. Besides, the GI50 in the test on HOP-92, with MCF7, with MDA-MB-231, in the test with MDA-N, in the test with Malme-3M and with NCI-H23 was > 100 µM (inactive) throughout. In addition, the GI50 with NCI-H522 was > 100 µM (inactive); with OVCAR-8, > 100 µM (inactive); with SF-295 it was > 100 µM (inactive); in the test with SK-OV-3 it was > 100 µM (inactive); in the test on SR, 0.432 µM (active); in the test with SW-620, > 100 µM (inactive).
